Data reported in patent US12668589B2, “N-formamidopyrazoline derivative as P2X3 receptor antagonist and use thereof” (HANGZHOU WESTAN PHARMACEUTICAL TECHNOLOGY CO., LTD, priority 2020, dated 2026).

How the values were obtained:
rP2X3 = target: T1, rP2X3 (Rattus norvegicus, UniProt P49654); test: Inhibitory activity against P2X3 in rats (electrophysiological method); type: cell-based
T1 construct: expressed in transfected cells; host or cells: HEK293
T1 sequence (P49654 1-397): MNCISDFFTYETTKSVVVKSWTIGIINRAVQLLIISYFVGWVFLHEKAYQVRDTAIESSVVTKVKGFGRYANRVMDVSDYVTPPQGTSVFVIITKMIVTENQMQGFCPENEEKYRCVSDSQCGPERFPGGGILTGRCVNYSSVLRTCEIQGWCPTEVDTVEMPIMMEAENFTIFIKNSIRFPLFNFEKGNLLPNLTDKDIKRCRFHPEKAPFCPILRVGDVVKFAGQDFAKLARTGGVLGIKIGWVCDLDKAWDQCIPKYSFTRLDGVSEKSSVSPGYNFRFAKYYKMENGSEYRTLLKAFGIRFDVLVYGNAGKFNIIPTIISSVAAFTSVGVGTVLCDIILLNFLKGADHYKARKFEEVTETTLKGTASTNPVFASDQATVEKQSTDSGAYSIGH

human P2X3 [1] = target: T2, human P2X3 (Homo sapiens, UniProt P56373); test: cell-based
T2 sequence (P56373 1-397): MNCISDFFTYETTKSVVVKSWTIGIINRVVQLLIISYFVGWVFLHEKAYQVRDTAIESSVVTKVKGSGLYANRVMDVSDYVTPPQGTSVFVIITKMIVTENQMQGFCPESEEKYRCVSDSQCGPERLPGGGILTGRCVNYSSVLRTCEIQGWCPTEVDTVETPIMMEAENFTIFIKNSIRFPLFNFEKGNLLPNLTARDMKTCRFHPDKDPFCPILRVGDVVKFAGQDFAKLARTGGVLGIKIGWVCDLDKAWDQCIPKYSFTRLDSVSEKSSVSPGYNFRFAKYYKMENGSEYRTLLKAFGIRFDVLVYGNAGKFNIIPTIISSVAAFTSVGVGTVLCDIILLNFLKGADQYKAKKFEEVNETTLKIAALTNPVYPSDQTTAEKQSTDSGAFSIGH
Protocol: (§1) An HEK293 cell line was used as cells. HEK293 cells were placed in a 37° C. incubator with 5% CO2 for culture. Passage was conducted when the cells grew to a density of 80% to 90%. A culture medium in an original 60 mm culture dish was discarded. After the cells were washed 3 times with a sterilized PBS solution, and the solution was blotted up. […] After the trypsin was blotted up, 3 mL of a cell culture medium was added to resuspend the cells. 0.5 mL of a resuspension solution was taken to be added into a new culture dish, and an total culture solution was supplemented to 5 mL. The culture dish was gently shaken to distribute the cells evenly, and then placed in a 37° C. incubator with 5% CO2 for culture.
(§2) First, treated slides were spread in a small 35 mm culture dish. 100 μL of resuspended cells were added, and then a total amount of a culture medium was supplemented to 2 mL. Target genes were transferred into the HEK293 cell line by adopting a calcium transfection method. Small dishes to be transfected were subjected to medium change 1 hour before transfection. 2 mL of a fresh cell culture solution was added. A 1.5 mL EP tube was taken, 200 μL of a 0.25 M CaCl2) solution was added, and 3 μg of plasmids to be transfected were added, and even mixing was conducted to form a DNA-CaCl2 solution. […] A pipette tip was used for mixing while adding. After adding all, gentle blowing and beating were conducted 8 to 10 times. After still standing for 5 minutes, they were added into small dishes. The small dishes were shaken slightly to mix the solution evenly, and the placed in a cell incubator. Culture mediums were replaced after 8 to 10 hours. Electrophysiological experiments were performed 24 to 48 hours after transfection.
(§3) Electrophysiological recording electrodes were obtained by two-step pulling by using an electrode puller (PP-10, Narishige). After an internal solution is injected into the electrodes, a water inlet resistance is 3 to 5 MΩ. During the experiment, a high potassium salt internal solution containing nystatin (K2SO4 of 75 mM, KCl of 120 mM, MgSO4 of 5 mM, HEPES of 10 mM, adjusting pH to 7.2 with Tris-base, and used after filtration) was used as an electrode internal solution. After the cells were sealed by the electrodes, there was no need to further break cell membranes in a sucked manner, but the cell membranes were bored through the perforation of the nystatin to the cell membranes, to form a hole channel. […] A clamping voltage was −60 mV, a sampling frequency was 10 kHz, and filtering was conducted at 2 kHz.
(§4) A working concentration of a P2X3 receptor agonist ATP was 1 μM, and an interval time between two times of ATP administrations was 10 minutes.

gpP2X3 = target: T3, gpP2X3 (Cavia porcellus, UniProt H0VWY5); test: Inhibitory activity against P2X3 in guinea pigs (electrophysiological method); type: cell-based; details: guinea pig P2X3, electrophysiological method
T3 sequence (H0VWY5 1-391): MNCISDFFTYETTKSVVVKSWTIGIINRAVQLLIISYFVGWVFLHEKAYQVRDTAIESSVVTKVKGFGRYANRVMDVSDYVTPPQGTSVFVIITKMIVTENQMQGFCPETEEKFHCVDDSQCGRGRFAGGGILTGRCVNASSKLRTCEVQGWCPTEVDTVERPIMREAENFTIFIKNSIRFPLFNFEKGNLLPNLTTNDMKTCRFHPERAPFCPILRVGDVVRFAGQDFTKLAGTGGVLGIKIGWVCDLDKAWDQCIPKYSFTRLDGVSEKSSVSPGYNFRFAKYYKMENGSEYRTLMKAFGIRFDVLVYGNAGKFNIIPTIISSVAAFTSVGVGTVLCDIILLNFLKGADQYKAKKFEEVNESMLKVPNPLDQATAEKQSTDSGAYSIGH

human P2X2/3 = target: T4, human P2X2/3 (Homo sapiens, UniProt P56373+Q9UBL9); test: Inhibitory activity against human P2X2/3 (electrophysiological method); type: cell-based; details: read-out: hP2X2/3 (IC50)
T4 construct: expressed in transfected cells; host or cells: HEK293
T4 sequence (P56373 1-397): T2 sequence (P56373 1-397)
T4 sequence (Q9UBL9 1-471): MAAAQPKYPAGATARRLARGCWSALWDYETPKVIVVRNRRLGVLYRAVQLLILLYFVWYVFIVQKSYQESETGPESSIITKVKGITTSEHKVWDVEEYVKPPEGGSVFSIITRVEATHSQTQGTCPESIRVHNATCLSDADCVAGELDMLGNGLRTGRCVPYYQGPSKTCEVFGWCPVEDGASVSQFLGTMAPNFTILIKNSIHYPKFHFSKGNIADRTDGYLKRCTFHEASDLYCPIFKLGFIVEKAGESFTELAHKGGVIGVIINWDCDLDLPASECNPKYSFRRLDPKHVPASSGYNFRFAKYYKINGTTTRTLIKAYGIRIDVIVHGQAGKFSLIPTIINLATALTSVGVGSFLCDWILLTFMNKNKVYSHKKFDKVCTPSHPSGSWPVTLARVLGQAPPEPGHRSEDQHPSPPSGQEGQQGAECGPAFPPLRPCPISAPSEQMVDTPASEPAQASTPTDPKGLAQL

human P2X4 = target: T5, human P2X4 (Homo sapiens, UniProt Q99571); test: Inhibitory activity against human P2X4 (electrophysiological method); type: cell-based; details: read-out: hP2X4 (IC50)
T5 construct: expressed in transfected cells; host or cells: HEK293
T5 sequence (Q99571 1-388): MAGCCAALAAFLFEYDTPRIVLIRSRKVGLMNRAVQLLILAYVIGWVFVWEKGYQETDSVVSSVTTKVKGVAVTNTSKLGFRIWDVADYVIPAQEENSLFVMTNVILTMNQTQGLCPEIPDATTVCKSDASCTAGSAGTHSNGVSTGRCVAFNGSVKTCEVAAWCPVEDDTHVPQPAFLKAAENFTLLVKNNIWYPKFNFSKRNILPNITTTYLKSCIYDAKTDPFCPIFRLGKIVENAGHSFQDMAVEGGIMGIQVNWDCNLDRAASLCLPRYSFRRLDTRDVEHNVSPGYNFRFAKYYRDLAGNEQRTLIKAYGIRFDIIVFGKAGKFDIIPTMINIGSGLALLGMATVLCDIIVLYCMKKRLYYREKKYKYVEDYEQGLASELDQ

human PAR-1 = target: T6, human PAR-1 (Homo sapiens, UniProt P25116); test: Inhibitory activity against PAR-1, calcium ion flux fluorescence method (FLIPR); type: cell-based; details: HEK293/Ga15 cells expressing human PAR-1, TFLLR-NH2 10 μM, starting concentration 30 μM
T6 construct: host or cells: HEK293/Ga15 recombinant cell line
T6 sequence (P25116 22-425): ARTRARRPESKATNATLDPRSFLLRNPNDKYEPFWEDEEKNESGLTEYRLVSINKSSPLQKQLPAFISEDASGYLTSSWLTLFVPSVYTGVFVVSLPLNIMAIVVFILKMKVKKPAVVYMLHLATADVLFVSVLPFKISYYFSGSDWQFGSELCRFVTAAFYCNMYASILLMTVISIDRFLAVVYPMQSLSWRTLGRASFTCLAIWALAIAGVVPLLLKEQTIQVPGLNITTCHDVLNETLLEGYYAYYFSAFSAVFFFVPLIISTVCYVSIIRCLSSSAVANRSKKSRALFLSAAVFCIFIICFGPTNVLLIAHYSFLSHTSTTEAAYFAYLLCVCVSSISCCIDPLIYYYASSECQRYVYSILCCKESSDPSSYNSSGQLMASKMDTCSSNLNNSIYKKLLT
Protocol: The inhibitory activity of the title compounds against human PAR-1 was determined by a calcium ion flux fluorescence method (an FLIPR method). The method thereof was reported in the literature of Zhong et al. [Zhong et al. J Biomol Struct Dyn, 2017, 35(13):2853].
An HEK293/Ga15 recombinant cell line (HD Biosciences, Shanghai, China) stably expressing human PAR-1 was cultured in a DMEM (Thermo Fisher Scientific, Shanghai) culture solution (containing 10% calf serum, 800 μg/mL G418). Incubator conditions were 37° C. and an air humidity with 5% CO2.
On the first day, 20 μL per well of PAR-1 cells at a concentration of 4E+5 cells/mL were seeded in a 384-well analysis plate (Corning 3712). […] On the second day, a culture solution in each well was poured off. Then, 20 μL of 1×loading dye (2 μM Fluo-8 AM in 1×HBSS with 20 mM HEPES, 1 mM Probenecid, 0.025% Pluronic F-127 assay buffer) was added in each well. The cell analysis plate was cultured for 1 hour at a room temperature.
The compounds were dissolved into 100% DMSO to prepare a 10 mM stock solution, which was stored at −20° C. On the day of use, the compound stock solution was thawed at a room temperature. Each compound was subjected to 1:3 serial dilution at 11 concentration points with a DMEM culture solution with a starting concentration of 30 μM. Each compound was subjected to double dilution for testing. A positive control compound was diluted in the same way with SCH79797 with a starting concentration of 30 μM.
The cell analysis plate was placed in a FLIPR instrument (Molecular Device) and 10 μL of compounds (3× of a final concentration) in a compound plate was added to corresponding wells of the cell analysis plate. After 10 minutes, 10 μL of TFLLR-NH2 (TFA) (a final concentration of 10 μM) was added to each well to stimulate generation of intracellular calcium flux signals. Ca^++-dependent fluorescence signals were continuously monitored at excitation wavelengths of 470/495 nm and emission wavelengths of 515/575 nm to analyze the inhibitory activity of the compounds.
Data were collected and analyzed by using an FLIPR program. The inhibitory (or agonistic) activity of the compounds at each concentration was assessed by fluorescence peaks. IC50 values of the compounds were calculated by using EXCEL and PRISM programs.

human P2X3 [2] = target: T2, human P2X3; test: Inhibitory activity against human P2X3, perforated patch clamp (electrophysiological method); details: read-out: hP2X3 (IC50), transfected HEK293 cells, agonist ATP 1 μM, compounds pre-administered for 2 minutes
Protocol: as §1, §2, §3, §4

IC50 (rP2X3) [nM]	IC50 (human P2X3 [1]) [nM]	IC50 (gpP2X3) [nM]	IC50 (human P2X2/3) [nM]	IC50 (human P2X4) [nM]	IC50 (human PAR-1) [nM]	IC50 (human P2X3 [2]) [nM]	Compound
103	38	359	1150	> 20000	> 30000	–	Cc1ccc(C2=NN(C(=O)N[C@H](C)c3ccc(C(F)(F)F)nc3)C[C@@H]2N2CCOC2=O)nc1 [Compound 23, (S)-4-(2-oxooxazolidin-3-yl)-3-(5-methylpyridin-2-yl)-N-((R)-1-(6-(trifluoromethyl)pyridin-3-yl)ethyl)-4,5-dihydro-1H-pyrazol-1-carboxamide]
–	–	–	–	–	–	151	(S)-4-(3-oxomorpholin-4-yl)-3-(4-methylphenyl])-N- ((R)-1-(3-methyl-1,2,4-oxadiazol-5-yl)ethyl)-4,5-d ihydro-1H-pyrazol-1-carboxamide [Compound 46]
